Assay results published in patent US9428464B2, “Kynurenine-3-monooxygenase inhibitors, pharmaceutical compositions, and methods of use thereof” (CHDI Foundation, Inc., priority 2011, dated 2016).
Where “and” joins values, the source holds several entries; their conditions need not be identical. Equal values may be shown once.

System: KMO
Test: KMO activity assay: L-Kynurenine hydroxylation to 3-Hydroxy-Kynurenine, quantified by LC/MS
Type: biochemical
Details: compound at 10 uM, footnote: some portion of activity of amides may be due to contribution of acid precursor
Protocol: A generalized procedure for monitoring L-Kynurenine (KYN) hydroxylation to form product 3-Hydroxy-Kynurenine (3OH-KYN) by LC/MS is described below. Product is quantified by multiple reaction monitoring using MS.
A method of monitoring L-Kynurenine (KYN) hydroxylation to form product 3-Hydroxy-Kynurenine (3OH-KYN) by LC/MS is described below. Product is quantified by multiple reaction monitoring.
• Compound: Stock concentrations: 10 mM in 100% DMSO • Enzyme: KMO enzyme prepared at Evotec via mitochondria isolation from CHO-GST HIS KMO cells • Substrate: L-Kynurenine (Sigma: Cat #K3750) • [stock concentration: 10 mM in 100 mM potassium phosphate buffer, pH 7.4]
A method of monitoring L-Kynurenine (KYN) hydroxylation to form 3-Hydroxy-Kynurenine (3OH-KYN) by LC/MS is described. Product is quantified by multiple reaction monitoring (MRM method).

O=C(c1cc(-c2ccc(Cl)c(Cl)c2)ncn1)N1CCN2C(=O)CCC2C1 (stereo not shown) [2-[6-(3,4-Dichloro-phenyl)-pyrimidine-4-carbonyl]-hexahydro-pyrrolo[1,2-a]pyrazin-6-one]
% Inhibition at 10 uM: 97.22%

Cl.O=C(NCC12CCN(CC1)CC2)c1cc(-c2ccc(Cl)c(Cl)c2)ncn1 [6-(3,4-Dichloro-phenyl)-pyrimidine-4-carboxylic acid (1-aza-bicyclo[2.2.2]oct-4-ylmethyl)-amide hydrochloride salt]
% Inhibition at 10 uM: 65.78%

O=C(Nc1ncco1)c1cc(-c2ccc(Cl)c(Cl)c2)ncn1 [6-(3,4-Dichloro-phenyl)-pyrimidine-4-carboxylic acid oxazol-2-yl-amide]
% Inhibition at 10 uM: 101.04%

O=C(O)C1CCN(C(=O)c2cc(-c3ccc(Cl)c(Cl)c3)ncn2)C1 (stereo not shown) [1-[6-(3,4-dichloro-phenyl)-pyrimidine-4-carbonyl]-pyrrolidine-3-carboxylic acid]
% Inhibition at 10 uM: 101.855%

C[C@H](NC(=O)c1cc(-c2cccc(Cl)c2)ncn1)c1ccncc1 [6-(3-Chloro-phenyl)-pyrimidine-4-carboxylic acid ((S)-1-pyridin-4-yl-ethyl)-amide]
% Inhibition at 10 uM: 96.86%

C[C@H](NC(=O)c1cc(-c2ccc(Cl)c(F)c2)ncn1)c1ccccc1 [6-(4-Chloro-3-fluoro-phenyl)-pyrimidine-4-carboxylic acid ((S)-1-phenyl-ethyl)-amide]
% Inhibition at 10 uM: 46.62%

Cc1nsc(NC(=O)c2cc(-c3ccc(Cl)c(Cl)c3)ncn2)n1 [6-(3,4-Dichloro-phenyl)-pyrimidine-4-carboxylic acid (3-methyl-[1,2,4]-thiadiazol-5-yl)-amide]
% Inhibition at 10 uM: 100.16%

O=C(Nc1ccc(N2CCNCC2)cc1)c1cc(-c2ccc(Cl)c(Cl)c2)ncn1 [6-(3,4-Dichloro-phenyl)-pyrimidine-4-carboxylic acid (4-piperazin-1-yl-phenyl)-amide]
% Inhibition at 10 uM: 43.46%

C[C@H](NC(=O)c1cc(-c2ccc(F)c(Cl)c2)ncn1)c1ccccc1 [6-(3-Chloro-4-fluoro-phenyl)-pyrimidine-4-carboxylic acid ((S)-1-phenyl-ethyl)-amide]
% Inhibition at 10 uM: 89.07%

O=C1CN(C(=O)c2cc(-c3cccc(Br)c3)ncn2)CCN1 [4-[6-(3-Bromo-phenyl)-pyrimidine-4-carbonyl]-piperazin-2-one]
% Inhibition at 10 uM: 96.625%

CC[C@H](NC(=O)c1cc(-c2ccc(Cl)c(Cl)c2)ncn1)C(N)=O [6-(3,4-Dichloro-phenyl)-pyrimidine-4-carboxylic acid ((S)-1-carbamoyl-propyl)-amide]
% Inhibition at 10 uM: 87.6%

O=C(Nc1nnco1)c1cc(-c2ccc(Cl)c(Cl)c2)ncn1 [6-(3,4-Dichloro-phenyl)-pyrimidine-4-carboxylic acid [1,3,4]oxadiazol-2-ylamide]
% Inhibition at 10 uM: 101.93%

C[C@@H](CO)NC(=O)c1cc(-c2ccc(Cl)c(Cl)c2)ncn1 [6-(3,4-Dichloro-phenyl)-pyrimidine-4-carboxylic acid ((S)-2-hydroxy-1-methyl-ethyl)-amide]
% Inhibition at 10 uM: 99.59%

O=C(Nc1ccc(N2CCOCC2)cc1)c1cc(-c2ccc(Cl)c(Cl)c2)ncn1 [6-(3,4-Dichloro-phenyl)-pyrimidine-4-carboxylic acid (4-morpholin-4-yl-phenyl)-amide]
% Inhibition at 10 uM: 101.19%

Cc1ccc(NC(=O)c2cc(-c3ccc(Cl)c(F)c3)ncn2)c(C)n1 [6-(4-Chloro-3-fluoro-phenyl)-pyrimidine-4-carboxylic acid (2,6-dimethyl-pyridin-3-yl)-amide]
% Inhibition at 10 uM: 52.81%

CC(=O)N1CC[C@H](NC(=O)c2cc(-c3ccc(Cl)c(Cl)c3)ncn2)C1 [6-(3,4-Dichloro-phenyl)-pyrimidine-4-carboxylic acid ((S)-1-acetyl-pyrrolidin-3-yl)-amide]
% Inhibition at 10 uM (10 µM): 84.87% and 98.54%

O=S(=O)(Nc1cc(-c2ccc(F)c(Cl)c2)ncn1)c1ccccc1 [N-[6-(3-Chloro-4-fluoro-phenyl)-pyrimidin-4-yl]-benzenesulfonamide]
% Inhibition at 10 uM: 98%

Cc1nc(C(=O)O)cc(-c2ccc(F)c(F)c2)n1 [6-(3,4-Difluoro-phenyl)-2-methyl-pyrimidine-4-carboxylic acid]
% Inhibition at 10 uM: 100%

CC(C)(O)c1nnc(NC(=O)c2cc(-c3ccc(Cl)c(Cl)c3)ncn2)o1 [6-(3,4-Dichloro-phenyl)-pyrimidine-4-carboxylic acid [5-(1-hydroxy-1-methyl-ethyl)-[1,3,4]oxadiazol-2-yl]-amide]
% Inhibition at 10 uM: 102.115%

O=C(N[C@H]1c2ccccc2C[C@H]1O)c1cc(-c2ccc(Cl)c(Cl)c2)ncn1 [6-(3,4-Dichloro-phenyl)-pyrimidine-4-carboxylic acid ((1S,2R)-2-hydroxy-indan-1-yl)-amide]
% Inhibition at 10 uM: 97.78%

O=C(Nc1cccnc1)c1cc(-c2cccc(Cl)c2F)ncn1 [6-(3-Chloro-2-fluoro-phenyl)-pyrimidine-4-carboxylic acid pyridin-3-yl-amide]
% Inhibition at 10 uM: 100.83%

CC1CN(c2cccc(NC(=O)c3cc(-c4ccc(Cl)c(Cl)c4)ncn3)c2)CC(C)O1 (stereo not shown) [6-(3,4-Dichloro-phenyl)-pyrimidine-4-carboxylic acid [3-(2,6-dimethyl-morpholin-4-yl)-phenyl]-amide]
% Inhibition at 10 uM: 57.56%

O=C(Nc1cc(C(F)(F)F)no1)c1cc(-c2ccc(Cl)c(Cl)c2)ncn1 [6-(3,4-Dichloro-phenyl)-pyrimidine-4-carboxylic acid (3-trifluoromethyl-isoxazol-5-yl)-amide]
% Inhibition at 10 uM: 101.875%

O=C(Nc1nnc(C(F)(F)F)o1)c1cc(-c2ccc(Cl)c(Cl)c2)ncn1 [6-(3,4-Dichloro-phenyl)-pyrimidine-4-carboxylic acid (5-trifluoromethyl-[1,3,4]oxadiazol-2-yl)-amide]
% Inhibition at 10 uM: 102.78%

Cc1cnc(NC(=O)c2cc(-c3ccc(Cl)c(Cl)c3)ncn2)c(C)n1 [6-(3,4-Dichloro-phenyl)-pyrimidine-4-carboxylic acid (3,5-dimethyl-pyrazin-2-yl)-amide]
% Inhibition at 10 uM: 97.84%

O=C(NO)c1cc(-c2ccc(Cl)c(Cl)c2)ncn1 [6-(3,4-dichlorophenyl)-N-hydroxypyrimidine-4-carboxamide]
% Inhibition at 10 uM: 73%

CC(=O)N[C@H]1CCN(C(=O)c2cc(-c3ccc(Cl)c(Cl)c3)ncn2)C1 [N-{(S)-1-[6-(3,4-Dichloro-phenyl)-pyrimidine-4-carbonyl]-pyrrolidin-3-yl}-acetamide]
% Inhibition at 10 uM: 100.27%

O=C(c1cc(-c2ccc(Cl)c(Cl)c2)ncn1)N1CC[C@@H](O)C1 [[6-(3,4-Dichloro-phenyl)-pyrimidin-4-yl]-((R)-3-hydroxy-pyrrolidin-1-yl)-methanone]
% Inhibition at 10 uM: 101.49%

O=C(Nc1cccnn1)c1cc(-c2ccc(Cl)c(Cl)c2)ncn1 [6-(3,4-Dichloro-phenyl)-pyrimidine-4-carboxylic acid pyridazin-3-yl-amide]
% Inhibition at 10 uM: 100.38%

O=C(Nc1cccnc1)c1cc(-c2ccc(Cl)cc2)ncn1 [6-(4-Chloro-phenyl)-pyrimidine-4-carboxylic acid pyridin-3-yl-amide]
% Inhibition at 10 uM: 67.93%

O=C(Nc1cccc(N2CCOCC2)c1)c1cc(-c2ccc(Cl)c(Cl)c2)ncn1 [6-(3,4-Dichloro-phenyl)-pyrimidine-4-carboxylic acid (3-morpholin-4-yl-phenyl)-amide]
% Inhibition at 10 uM: 100.15%

O=C(Nc1cncnc1)c1cc(-c2cccc(F)c2)ncn1 [6-(3-Fluoro-phenyl)-pyrimidine-4-carboxylic acid pyrimidin-5-yl-amide]
% Inhibition at 10 uM: 81.88%

Cl.O=C(Nc1cccc(C2CCNCC2)c1)c1cc(-c2ccc(Cl)c(Cl)c2)ncn1 [6-(3,4-Dichloro-phenyl)-pyrimidine-4-carboxylic acid (3-piperidin-4-yl-phenyl)-amide hydrochloride salt]
% Inhibition at 10 uM: 69.06%

O=C(N[C@@H](CO)C(=O)O)c1cc(-c2ccc(Cl)c(Cl)c2)ncn1 [(S)-2-{[6-(3,4-Dichloro-phenyl)-pyrimidine-4-carbonyl]-amino}-3-hydroxy-propionic acid]
% Inhibition at 10 uM: 101.22%

CN1CCN(C(=O)c2cc(-c3ccc(Cl)c(Cl)c3)ncn2)CC1=O [4-[6-(3,4-Dichloro-phenyl)-pyrimidine-4-carbonyl]-1-methyl-piperazin-2-one]
% Inhibition at 10 uM: 87.44%

O=C(c1cc(-c2ccc(Cl)c(Cl)c2)ncn1)N1CCC(C(=O)N2CCOCC2)C1 (stereo not shown) [[6-(3,4-Dichloro-phenyl)-pyrimidin-4-yl]-[3-(morpholine-4-carbonyl)-pyrrolidin-1-yl]-methanone]
% Inhibition at 10 uM: 90.83%

O=C1NC(=O)[C@@H]2CN(C(=O)c3cc(-c4ccc(Cl)c(Cl)c4)ncn3)C[C@H]12 [(3aS,6aR)-5-[6-(3,4-Dichloro-phenyl)-pyrimidine-4-carbonyl]-tetrahydro-pyrrolo[3,4-c]pyrrole-1,3-dione]
% Inhibition at 10 uM: 95.73%
